Values after ≈ are worked out from the molar mass of the structure shown. Values joined by “and” are separate entries in the source; they are usually repeats but may differ in a detail not shown here. Equal entries are not always repeated. Where two headings read alike, the source gives them in different places.
Tests used:
[1] = tested on: replicating Mtb-lux (Mycobacterium tuberculosis CDC1551 with pMV306hsp+LuxG13); assay type: cell-based
[2] = tested on: dormant Mtb-lux (Mycobacterium tuberculosis CDC1551 with pMV306hsp+LuxG13); assay type: cell-based; settings: for R/D (MICR/MICD, Mtb-lux): ratio replicating MIC to dormant MIC
[3] = tested on: Mycobacterium tuberculosis H37Ra ATCC 25177; test: MIC against Mtb H37Ra, resazurin microtiter assay (REMA); assay type: cell-based; settings: for MIC: Mycobacterium tuberculosis, 336 h
[4] = tested on: Staphylococcus aureus ATCC 25923; test: MIC against S. aureus, REMA; settings: visual, 24 h
[5] = tested on: Clostridioides difficile NAP1; test: MIC against C. difficile NAP1, modified broth microdilution; settings: for MIC C. difficile: NAP1, modified broth microdilution, 48 h, anaerobic; for MIC: Clostridioides difficile, NAP1, 48 h, read-out: MIC C. difficile, NAP1, modified broth microdilution, 48 h, anaerobic
[6] = tested on: Bacillus subtilis ATCC 23857; test: MIC against B. subtilis, REMA; settings: for MIC B. subtilis: REMA, visual, 24 h
[7] = tested on: Enterococcus faecalis ATCC 29212; test: MIC against E. faecalis, REMA; settings: for MIC E. faecalis: REMA, visual, 24 h
[8] = tested on: TcdA production in C. difficile NAP1; test: Toxin analysis: extracellular TcdA of C. difficile NAP1 at sub-MICs, western blot; assay type: cell-based, Clostridioides difficile; parameters: Concentration at which TcdA was undetectable: unit not given here; settings: for Effect on TcdA toxin production: NAP1 challenged with 0.5×, 0.25×, 0.125× MIC, 48 h, TcdA normalized to total protein
Experimental: After a 48 h incubation of NAP1 challenged with several dilutions of each compound, extracellular toxin in spent media derived from triplicate cultures was assessed with western blots using a monoclonal antibody against TcdA. Semi-quantitative analysis of toxin levels was performed via densitometry of TcdA band intensity with respect to total protein as measured by the Bradford assay. Semi-quantitative plots are shown below each representative blot. (a) Toxin production in BHIS (NAP1) and BHIS with 5% DMSO (vehicle). (b) Toxin production from cultures challenged with sub-MICs of fidaxomicin, (c) vancomycin, and (d-j) (+)-puupehenone and selected derivatives. Data points represent the means of adjusted toxin levels derived from triplicate cultures, while error bars represent standard deviations. Statistical analysis was performed in GraphPad Prism 8 using unpaired t-tests. *P<0.05; **P<0.01.
To account for changes in biomass, a semi-quantitative analysis of TcdA production was performed by normalizing the target bands from representative western blots to the amount of total protein in each sample.
Toxin analysis. Toxin production was determined by analyzing the amount of extracellular toxin in the cultures from the ASTs described above. At 48 h, total protein of each culture was determined with the Bradford assay using bovine serum albumin (BSA) as a standard.^53 Cultures were then centrifuged at 5,000×g for 5 minutes to clear the supernatants which were separately collected and frozen at −20° C. After thawing at room temperature, cell-free supernatants were mixed 1:1 with 2× Laemmli buffer and incubated in a sand bath at 100° C. for 5 minutes. Twenty microliters of denatured samples were loaded onto 7.5% Tris-glycine gels and electrophoresed at 200 V for 1 h. After electrophoresis, samples were transferred to polyvinylidene difluoride membranes at 4° C. overnight at 30 V. Membranes were incubated in a blocking buffer (20 mM Tris-HCl, 150 mM NaCl, 0.01 mM ethylenediaminetetraacetic acid, 0.1% Tween 20, 1% BSA, [pH 7.5]) for 1 h at room temperature. TcdA was detected with a monoclonal mouse anti-TcdA antibody (PCG4.1, Novus Biologicals) and a rabbit anti-mouse antibody conjugated with alkaline phosphatase. Blots were visualized with a ChemiDoc XRS+ imaging system (Bio-Rad).
Semi-quantitative analysis of TcdA was performed using Image Lab 6.0 software (Bio-Rad). Briefly, after subtracting background noise, peaks corresponding to the target band were selected with the software's Lane Profile tool. The density of each peak generated a value (arbitrary units) that was normalized to the total protein amount of each respective sample. […] These losses of activity prevented us from performing statistical analysis from multiple experiments, as the sub-MICs were not always the same. Since there were no changes to the methodology described, several other reasons could have accounted for decreased activity, such as compound stability, freeze-thaw, and adherence to plastic. Nevertheless, the toxin results were reproducible, irrespective of the exact sub-MICs on different days.

[9] = tested on: HepG2 (human liver carcinoma) cell line; test: Cytotoxicity assay HepG2
[10] = Cytotoxicity assay HepG2; settings: human
[11] = tested on: J774A.1 (murine macrophage-like) cell line; test: Cytotoxicity assay J774A.1; assay type: cell-based
Experimental: (§1) To evaluate the selectivity of the top six compounds from the Mtb-lux activity screen (Table 2), cytotoxicity for two different mammalian cell lines was determined. The IC50 was calculated for each compound against J774A.1 and HepG2 cell lines. The selectivity index (SI) for both replicating and dormant conditions was then calculated by taking the IC50 and dividing it by the corresponding MIC (SIR=IC50/MICR, SID=IC50/MICD)^40. Consistent with the experience, the J774 macrophage cell line was more sensitive to all compounds tested. […] Based on these observations, this triacetate protected puupehenone represents a promising candidate for further optimization.
(§2) Cytotoxicity assay: Cytotoxicity was assessed using J774A.1 (murine macrophage-like) and HepG2 (human liver carcinoma) cell lines using 2-fold dilution of the compounds as described previously^42, 43. IC50 values were determined using nonlinear regression fitting of the databy GraphPad Prism. The selectivity Index (SI) was calculated as IC50/MIC.

[12] = Cytotoxicity assay J774A.1; assay type: cell-based, murine; settings: mouse, J774A.1 macrophage-like cells; J774A.1 cells; read-out: Cytotoxicity (IC50) J774
Experimental: as §1, §2

[13] = read-out: MIC Mtb H37Ra, determined visually by REMA assay, 14-day incubation
[14] = determined visually by REMA assay, 14-day incubation, read-out: MIC Mtb H37Ra

Compound	MICR (Mtb-lux) [1]	MICD (Mtb-lux) [2]	R/D (MICR/MICD, Mtb-lux) [2]	MIC C. difficile [5]	SI (SID) HepG2 [9]	SI (SIR) HepG2 [9]	IC50 [10]	SI (SID) J774 [11]	SI (SIR) J774 [11]	IC50 [12]	further results
CC(C)C(=O)Oc1cc2c(cc1OC(=O)C(C)C)[C@@H](OC(=O)C(C)C)[C@@H]1[C@@]3(C)CCCC(C)(C)[C@@H]3CC[C@]1(C)O2 [Compound 22]	7.6 µg/mL	88.8 µg/mL	0.08	–	–	–	–	–	–	–	–
CC1(C)CCCC2(C)C1CCC(C)(O)C2Cc1ccc(OCc2ccccc2)cc1 (stereo not shown) [Compound 33]	57.5 µg/mL	40.4 µg/mL	1.4	–	–	–	–	–	–	–	MIC Mtb H37Ra [3]: 40.6 µg/mL (≈ 99.8 µM)
CC1(C)CCCC2(C)C1CCC(C)(O)C2Cc1ccc(O)c(O)c1 (stereo not shown) [Compound 38]	58.0 µg/mL	42.0 µg/mL	1.4	did not exhibit any activity	–	–	–	–	–	–	MIC S. aureus [4]: did not exhibit any activity; MIC B. subtilis [6]: did not exhibit any activity; MIC E. faecalis [7]: did not exhibit any activity
CO[C@@H]1c2cc(OC(=O)c3ccccc3)c(OC(=O)c3ccccc3)cc2O[C@@]2(C)CC[C@H]3C(C)(C)CCC[C@]3(C)[C@@H]12 [Compound 18]	>200 µg/mL	48.3 µg/mL	–	–	–	–	–	–	–	–	–
CC1(C)CCC[C@]2(C)[C@@H](Cc3cc(O)ccc3O)[C@](C)(O)CC[C@@H]12 [Compound 41, (+)-Yahazunol]	–	–	–	did not inhibit	–	–	–	–	–	–	MIC S. aureus [4]: 33.2 µg/mL (≈ 99.9 µM); MIC B. subtilis [6]: 33.2 µg/mL (≈ 99.9 µM)
CC1(C)CCC[C@]2(C)[C@@H]1CC[C@]1(C)Oc3ccc(O)cc3C[C@@H]21 [Compound 31, (+)-Chromazonarol]	56.5 µg/mL	32 µg/mL	1.8	inactive	–	–	–	–	–	–	MIC Mtb H37Ra [3]: 31.4 µg/mL (≈ 99.9 µM); MIC S. aureus [4]: inactive; MIC B. subtilis [6]: 8.6 µg/mL (≈ 27.3 µM); MIC E. faecalis [7]: inactive
CC(=O)Oc1cc2c(cc1OC(C)=O)[C@@H](OC(C)=O)[C@@H]1[C@@]3(C)CCCC(C)(C)[C@@H]3CC[C@]1(C)O2 [Compound 20, 15-α-acetoxypuupehenol diacetate]	6.0 µg/mL	1.4 µg/mL	4.3	2.0 µg/mL	> 142.3	> 33.3	> 200 µM	> 142.3	> 33.3	> 200 µM	MIC [3, 13]: 11.8 µg/mL; Effect on TcdA toxin production [8]: decreased the amount of toxin in a similar concentration-dependent manner; Cytotoxicity (IC50) HepG2 ([9]; HepG2 cells): no cytotoxicity; MIC [5]: 2 to 4 µg/mL; Cytotoxicity (IC50) J774 ([11]; J774A.1 cells): no cytotoxicity
CCC(=O)Oc1cc2c(cc1OC(=O)CC)[C@@H](OC(=O)CC)[C@@H]1[C@@]3(C)CCCC(C)(C)[C@@H]3CC[C@]1(C)O2 [Compound 21]	2.8 µg/mL	1.0 µg/mL and 1 µg/mL	2.8	–	64.2	22.9	64.2 µM	26.4	9.4	26.4 µM	MIC [3, 13]: 12.9 µg/mL (≈ 25.1 µM); MIC Mtb H37Ra ([3]; determined visually by REMA assay, 14-day incubation): 12.85 µg/mL (≈ 25 µM)
CO[C@@H]1c2cc(OC(=O)C(C)C)c(OC(=O)C(C)C)cc2O[C@@]2(C)CC[C@H]3C(C)(C)CCC[C@]3(C)[C@@H]12 [Compound 17]	8.6 µg/mL	10.1 µg/mL	0.9	–	–	–	–	–	–	–	MIC [3, 14]: 25 µg/mL (≈ 49.9 µM)
CN[C@H](CC(C)C)C(=O)N[C@H]1C(=O)N[C@@H](CC(N)=O)C(=O)N[C@H]2C(=O)N[C@H]3C(=O)N[C@H](C(=O)N[C@H](C(=O)O)c4cc(O)cc(O)c4-c4cc3ccc4O)[C@H](O)c3ccc(c(Cl)c3)Oc3cc2cc(c3O[C@@H]2O[C@H](CO)[C@@H](O)[C@H](O)[C@H]2O[C@H]2C[C@](C)(N)[C@H](O)[C@H](C)O2)Oc2ccc(cc2Cl)[C@H]1O [vancomycin, reference compound]	–	–	–	–	–	–	–	–	–	–	Effect on TcdA toxin production [8]: reduced toxin production in a concentration-dependent manner
CC1(C)CCC[C@]2(C)[C@H]3C=C4C=C(O)C(=O)C=C4O[C@@]3(C)CC[C@@H]12 [Compound 1, (+)-Puupehenone]	3.0 µg/mL	0.5 µg/mL	6.0	2.0 µg/mL (≈ 6.09 µM)	141.2	23.5	70.6 µM	46.4	7.7	23.2 µM	MIC [3, 14]: 32.8 µg/mL (≈ 99.9 µM); Concentration at which TcdA was undetectable ([8]; NAP1, 48 h, western blot): 1; MIC [5]: 2 to 4 µg/mL (≈ 6.09 to 12.2 µM)
CO[C@@H]1c2cc(OC(=O)C(C)(C)C)c(O)cc2O[C@@]2(C)CC[C@H]3C(C)(C)CCC[C@]3(C)[C@@H]12 [Compound 19, 15-α-methoxypuupehenol monopivalate]	12.7 µg/mL	1.5 µg/mL	–	4.0 µg/mL (≈ 9 µM)	> 133.3	> 15.7	> 200 µM	37.6	4.4	56.4 µM	MIC [3, 13]: 44.4 µg/mL (≈ 99.9 µM); Effect on TcdA toxin production [8]: did not appear to substantially change toxin production; MIC [5]: 2 to 4 µg/mL (≈ 4.5 to 9 µM); MIC ([6]; Bacillus subtilis, ATCC23857, 24 h, read-out: MIC B. subtilis): 22.2 µg/mL (≈ 50 µM); MIC ([7]; Enterococcus faecalis, ATCC29212, 24 h, read-out: MIC E. faecalis): 22.2 µg/mL (≈ 50 µM)
CC1(C)CCCC2(C)C1CCC(C)(O)C2Cc1ccc(O)cc1O (stereo not shown) [Compound 36]	–	–	–	8.0 µg/mL (≈ 24.1 µM)	–	–	–	–	–	–	Effect on TcdA toxin production [8]: did not appear to substantially change toxin production; MIC S. aureus [4]: 16.6 µg/mL (≈ 49.9 µM); MIC B. subtilis [6]: 8.2 µg/mL and 8.3 µg/mL; MIC E. faecalis [7]: 16.2 µg/mL (≈ 48.7 µM)
CCC(=O)Oc1cc2c(cc1OC(=O)CC)[C@@H](OC)[C@@H]1[C@@]3(C)CCCC(C)(C)[C@@H]3CC[C@]1(C)O2 [Compound 16]	8.9 µg/mL	1.7 µg/mL	5.2	–	> 117.6	> 22.5	> 200 µM	35.7	6.8	60.6 µM	MIC [3, 14]: 23.6 µg/mL (≈ 49.9 µM)

Source: US20250288553A1, “Antimicrobial Compositions and Uses for Treatment of Clostridioides difficile, Mycobacterium tuberculosis, and Enterococcus faecalis Infection” (priority 2022, published 2025)
